The source made the active and inactive calls. How the calls were made is not given here.
Tested on: CCRIS mutagenicity, Ames/micronucleus/aberration tests
Experiment: CCRIS mutagenicity studies
[1] = Test System: AMES SALMONELLA TYPHIMURIUM, Strain/Indicator: TA98, Metabolic Activation: NONE, Method: PREINCUBATION
[2] = Test System: AMES SALMONELLA TYPHIMURIUM, Strain/Indicator: TA100, Metabolic Activation: NONE, Method: PREINCUBATION
[3] = Test System: AMES SALMONELLA TYPHIMURIUM, Strain/Indicator: TA1535, Metabolic Activation: NONE, Method: PREINCUBATION
[4] = Test System: AMES SALMONELLA TYPHIMURIUM, Strain/Indicator: TA1537, Metabolic Activation: NONE, Method: PREINCUBATION
[5] = Test System: AMES SALMONELLA TYPHIMURIUM, Strain/Indicator: TA98, Metabolic Activation: RAT, LIVER, S-9, AROCLOR 1254, Method: STANDARD PLATE
[6] = Test System: AMES SALMONELLA TYPHIMURIUM, Strain/Indicator: TA100, Metabolic Activation: NONE, Method: STANDARD PLATE
[7] = Test System: AMES SALMONELLA TYPHIMURIUM, Strain/Indicator: TA100, Metabolic Activation: RAT, LIVER, S-9, AROCLOR 1254, Method: STANDARD PLATE
[8] = Test System: AMES SALMONELLA TYPHIMURIUM, Strain/Indicator: TA98, Metabolic Activation: NONE, Method: STANDARD PLATE
[9] = Test System: AMES SALMONELLA TYPHIMURIUM, Strain/Indicator: TA98, Metabolic Activation: RAT, LIVER, S-9, AROCLOR 1254, Method: PREINCUBATION
[10] = Test System: AMES SALMONELLA TYPHIMURIUM, Strain/Indicator: TA1535, Metabolic Activation: NONE, Method: STANDARD PLATE
[11] = Test System: AMES SALMONELLA TYPHIMURIUM, Strain/Indicator: TA1537, Metabolic Activation: NONE, Method: STANDARD PLATE

## CC(Br)C(=O)O (centres undefined)
End Point: IN VITRO CHROMOSOMAL ABERRATIONS, Test System: CHL CELLS, Metabolic Activation: RAT, LIVER, S-9, SODIUM PHENOBARBITAL AND 5,6-BENZOFLAVONE
  mutagenic call: active; positive (structural changes)
[1]
  mutagenic call: inactive; negative
Test System: AMES SALMONELLA TYPHIMURIUM, Strain/Indicator: TA98, Metabolic Activation: RAT LIVER S-9, PHENOBARBITAL AND BETA-NAPHTHOFLAVONE, Method: PREINCUBATION
  mutagenic call: inactive; negative
[2]
  mutagenic call: inactive; negative
Test System: AMES SALMONELLA TYPHIMURIUM, Strain/Indicator: TA100, Metabolic Activation: RAT LIVER S-9, PHENOBARBITAL AND BETA-NAPHTHOFLAVONE, Method: PREINCUBATION
  mutagenic call: inactive; negative
[3]
  mutagenic call: inactive; negative
Test System: AMES SALMONELLA TYPHIMURIUM, Strain/Indicator: TA1535, Metabolic Activation: RAT LIVER S-9, PHENOBARBITAL AND BETA-NAPHTHOFLAVONE, Method: PREINCUBATION
  mutagenic call: active; positive
[4]
  mutagenic call: inactive; negative
Test System: AMES SALMONELLA TYPHIMURIUM, Strain/Indicator: TA1537, Metabolic Activation: RAT LIVER S-9, PHENOBARBITAL AND BETA-NAPHTHOFLAVONE, Method: PREINCUBATION
  mutagenic call: inactive; negative
Test System: AMES SALMONELLA TYPHIMURIUM, Strain/Indicator: TA1538, Metabolic Activation: NONE, Method: PREINCUBATION
  mutagenic call: inactive; negative
Test System: AMES SALMONELLA TYPHIMURIUM, Strain/Indicator: TA1538, Metabolic Activation: RAT LIVER S-9, PHENOBARBITAL AND BETA-NAPHTHOFLAVONE, Method: PREINCUBATION
  mutagenic call: inactive; negative
Test System: E.COLI, Strain/Indicator: WP2UVRA, Metabolic Activation: NONE, Method: PREINCUBATION
  mutagenic call: inactive; negative
Test System: E.COLI, Strain/Indicator: WP2UVRA, Metabolic Activation: RAT LIVER S-9, PHENOBARBITAL AND BETA-NAPHTHOFLAVONE, Method: PREINCUBATION
  mutagenic call: inactive; negative

## CC(=O)Nc1cc2c(cc1O)-c1ccccc1C2
[5]
  mutagenic call: inactive; negative

## C[C@H](CCC(=O)O)[C@H]1CC[C@H]2[C@@H]3[C@H](O)C[C@@H]4C[C@H](O)CC[C@]4(C)[C@H]3CC[C@]12C
[6]
  mutagenic call: inactive; negative
[7]
  mutagenic call: inactive; negative

## O=NN(CC(=O)O)CC1(O)OCC(O)C(O)C1O (centres undefined)
[8]
  mutagenic call: inactive; negative
[9]
  mutagenic call: inactive; negative
[5]
  mutagenic call: inactive; negative
[6]
  mutagenic call: inactive; negative
Test System: AMES SALMONELLA TYPHIMURIUM, Strain/Indicator: TA100, Metabolic Activation: RAT, LIVER, S-9, AROCLOR 1254, Method: PREINCUBATION
  mutagenic call: inactive; negative
[7]
  mutagenic call: inactive; negative
[10]
  mutagenic call: inactive; negative
Test System: AMES SALMONELLA TYPHIMURIUM, Strain/Indicator: TA1535, Metabolic Activation: RAT, LIVER, S-9, AROCLOR 1254, Method: STANDARD PLATE
  mutagenic call: inactive; negative
[11]
  mutagenic call: inactive; negative
Test System: AMES SALMONELLA TYPHIMURIUM, Strain/Indicator: TA1537, Metabolic Activation: RAT, LIVER, S-9, AROCLOR 1254, Method: STANDARD PLATE
  mutagenic call: inactive; negative
Test System: AMES SALMONELLA TYPHIMURIUM, Strain/Indicator: TA1538, Metabolic Activation: NONE, Method: STANDARD PLATE
  mutagenic call: inactive; negative
Test System: AMES SALMONELLA TYPHIMURIUM, Strain/Indicator: TA1538, Metabolic Activation: RAT, LIVER, S-9, AROCLOR 1254, Method: STANDARD PLATE
  mutagenic call: inactive; negative

## CC(=O)OCc1c(O)c(C(=O)O)c(C)c2c1OC(=O)c1c(C)cc(O)c(C=O)c1O2
[1]
  mutagenic call: inactive; negative
[8]
  mutagenic call: inactive; negative
Test System: AMES SALMONELLA TYPHIMURIUM, Strain/Indicator: TA98, Metabolic Activation: RAT, LIVER, S-9, Method: PREINCUBATION
  mutagenic call: inactive; negative
Test System: AMES SALMONELLA TYPHIMURIUM, Strain/Indicator: TA98, Metabolic Activation: RAT, LIVER, S-9, Method: STANDARD PLATE
  mutagenic call: inactive; negative
[2]
  mutagenic call: active; positive
[6]
  mutagenic call: inactive; negative
Test System: AMES SALMONELLA TYPHIMURIUM, Strain/Indicator: TA100, Metabolic Activation: RAT, LIVER, S-9, Method: PREINCUBATION
  mutagenic call: active; positive
Test System: AMES SALMONELLA TYPHIMURIUM, Strain/Indicator: TA100, Metabolic Activation: RAT, LIVER, S-9, Method: STANDARD PLATE
  mutagenic call: active; positive

## OC/C(Br)=C(\Br)CO
Test System: AMES SALMONELLA TYPHIMURIUM, Strain/Indicator: TA98, Metabolic Activation: HAMSTER, LIVER, S-9, AROCLOR 1254 (10%), Method: PREINCUBATION
  mutagenic call: active; positive
[1]
  mutagenic call: inactive; negative
[9]
  mutagenic call: active; positive
Test System: AMES SALMONELLA TYPHIMURIUM, Strain/Indicator: TA100, Metabolic Activation: HAMSTER, LIVER, S-9, AROCLOR 1254 (10%), Method: PREINCUBATION
  mutagenic call: active; positive
[2]
  mutagenic call: inactive; negative
Test System: AMES SALMONELLA TYPHIMURIUM, Strain/Indicator: TA100, Metabolic Activation: RAT, LIVER, S-9, AROCLOR 1254 (10%), Method: PREINCUBATION
  mutagenic call: active; positive
Test System: AMES SALMONELLA TYPHIMURIUM, Strain/Indicator: TA1535, Metabolic Activation: HAMSTER, LIVER, S-9, AROCLOR 1254 (10%), Method: PREINCUBATION
  mutagenic call: active; positive
[3]
  mutagenic call: inactive; negative
Test System: AMES SALMONELLA TYPHIMURIUM, Strain/Indicator: TA1535, Metabolic Activation: RAT, LIVER, S-9, AROCLOR 1254 (10%), Method: PREINCUBATION
  mutagenic call: active; positive
Test System: AMES SALMONELLA TYPHIMURIUM, Strain/Indicator: TA1537, Metabolic Activation: HAMSTER, LIVER, S-9, AROCLOR 1254 (10%), Method: PREINCUBATION
  mutagenic call: active; positive
[4]
  mutagenic call: inactive; negative
Test System: AMES SALMONELLA TYPHIMURIUM, Strain/Indicator: TA1537, Metabolic Activation: RAT, LIVER, S-9, AROCLOR 1254 (10%), Method: PREINCUBATION
  mutagenic call: inactive; negative

## CCN(C(=O)CCCCl)c1snc2ccccc12
[8]
  mutagenic call: inactive; negative
Test System: AMES SALMONELLA TYPHIMURIUM, Strain/Indicator: TA98, Metabolic Activation: S-9, Method: STANDARD PLATE
  mutagenic call: inactive; negative
[6]
  mutagenic call: inactive; negative
Test System: AMES SALMONELLA TYPHIMURIUM, Strain/Indicator: TA100, Metabolic Activation: S-9, Method: STANDARD PLATE
  mutagenic call: inactive; negative
[10]
  mutagenic call: inactive; negative
Test System: AMES SALMONELLA TYPHIMURIUM, Strain/Indicator: TA1535, Metabolic Activation: S-9, Method: STANDARD PLATE
  mutagenic call: inactive; negative
[11]
  mutagenic call: inactive; negative
Test System: AMES SALMONELLA TYPHIMURIUM, Strain/Indicator: TA1537, Metabolic Activation: S-9, Method: STANDARD PLATE
  mutagenic call: inactive; negative

## CCOC(C)C(=O)C(O)O (centres undefined)
Test System: AMES SALMONELLA TYPHIMURIUM, Strain/Indicator: TA102, Metabolic Activation: NONE, Method: STANDARD PLATE
  mutagenic call: active; positive
Test System: AMES SALMONELLA TYPHIMURIUM, Strain/Indicator: TA104, Metabolic Activation: NONE, Method: PREINCUBATION
  mutagenic call: active; positive
Test System: AMES SALMONELLA TYPHIMURIUM, Strain/Indicator: TA2638A, Metabolic Activation: NONE, Method: STANDARD PLATE
  mutagenic call: active; positive

Source: PubChem BioAssay AID1259407 (Chemical Carcinogenesis Research Information System (CCRIS), 2018)
